Data: US12673063B2, “Methods and materials for treatment of fibrosis” (Massachusetts Eye and Ear Infirmary, priority 2020, dated 2026)

Key:
[1] = test system: human lung fibroblasts (HLF); test: Lactate dehydrogenase (LDH) cell death assay, HLF; format: cell-based; conditions: Ro24-7429 50-200 μM, Ro5-3335 150 μM
Description: (§1) We conducted mechanistic studies in cell culture to examine the cellular and molecular mechanisms underlying the robust effects of RUNX1 inhibition in the protection against bleomycin-induced lung injury. We tested the effect of RUNX1 inhibition on the proliferation of a human alveolar basal epithelial cell line (A549), primary human-derived pulmonary alveolar epithelial cells (HPAEpi), and in human-derived primary culture lung fibroblasts (HLF). For specific analyses we used escalating doses of Ro24-7429 (50-200 μM), Ro5-3335 (150 μM), pirfenidone (500 μg/ml) and nintedanib (5 μM), the latter two are currently approved drugs for IPF.

[2] = test system: A549 cells; test: Lactate dehydrogenase (LDH) cell death assay, A549; format: cell-based; conditions: for cell death by LDH analysis: A549, Ro24-7429 50-200 μM, Ro5-3335 150 μM; for cell death: 500μ g/ml
Description: (§2) Human type II alveolar epithelial cells (A549) were a generous gift from Dr. Lagares (Mass General Hospital). Cells were maintained in low glucose-DMEM containing 10% FBS, 2 mM L-glutamine, 100 U/ml penicillin and 100 μg/ml streptomycin at 37° C. in a humidified 5% C02 atmosphere.
We tested the effect of RUNX1 inhibition on the proliferation of a human alveolar basal epithelial cell line (A549), primary human-derived pulmonary alveolar epithelial cells (HPAEpi), and in human-derived primary culture lung fibroblasts (HLF).

[3] = test system: A549 cells; test: CyQUANT Direct Cell Proliferation Assay, A549; format: cell-based, human; conditions: for percent live cells compared to vehicle treated: 48 hours, Ro5-3335 150 μM, Ro24-7429 50 μM-200 μM, Pirfenidone 500 μg/ml, Nintedanib 5 μM; for anti-proliferative effect: 150 μM
Description: as §2, with “atmosphere. Confluent cultures of cells were pretreated with Ro24-7429 for 24 hours followed by stimulation with 5 ng/ml of TGF-β1.” for “atmosphere.”
as §1, with “We” for “We conducted mechanistic studies in cell culture to examine the cellular and molecular mechanisms underlying the robust effects of RUNX1 inhibition in the protection against bleomycin-induced lung injury. We”

[4] = test system: human lung fibroblasts (HLF); test: CyQUANT Direct Cell Proliferation Assay, HLF; format: cell-based; conditions: 72 hours
Description: as §1

[5] = test system: bleomycin-induced inflammation; test: Bleomycin-induced lung inflammation, infiltration of neutrophils and macrophages; format: in vivo, C57BL/6J mice; conditions: 1-week and 2-week time points
Description: (§3) Bleomycin sulphate (Sigma-Aldrich) was dissolved in sterile 0.9% saline and administered as a single dose of 0.05 units in a total volume of 50 μl in saline solution per animal intratracheally (IT). Control animals received 0.05 mL saline alone. A preventative regimen was chosen and each animal received either Ro24-7429 drug 70 mg/kg or vehicle every other day 7 days before the induction of the model and continued until the end of the experiment for 1 week or 2 weeks. All animals received intratracheal instillations of either bleomycin on day 0 as previously described (52-55). A separate experiment was performed with similar drug-vehicle treatments and IT saline instillation for controls. The surgeon performing IT instillations was masked to the identity of the treatment groups.
Paraffin embedded sections were processed for immunofluorescence using the following antibodies: anti-RUNX1 (1:100; LS-B13948; Lifespan Biosciences, Seattle, WA), anti-human a-SMA antibody (1:200; NB500-170; Novus Biologicals, Ontario, Canada), anti-Iba1 antibody (1:100; ab5076; Abcam, Cambridge, United Kingdom), anti-Ly6g antibody (1:100; ab25377; Abcam, Cambridge, United Kingdom), and Isolectin GS-IB4 Alexa Fluoro 594 Conjugate (1:250; 121413; Invitrogen, Carlsbad, CA). […]
We evaluated the potential effect of Ro24-7429 on bleomycin-induced inflammation 1 week and 2 weeks after lung injury (FIGS. 1I-J and 2).

[6] = test system: bleomycin-induced lung fibrosis; test: Bleomycin-induced lung fibrosis model, H&E, Masson's trichrome, Ashcroft score; format: in vivo, C57BL/6J mice
Description: Animal procedures were approved by the Institutional Animal Care and Use Committee (IACUC) of Massachusetts Eye and Ear, and performed in accordance with the Association for Research in Vision and Ophthalmology Statement for the Use of Animals in Ophthalmic and Vision Research. C57BL/6J male and female mice of 6-8 weeks-old were purchased from Jackson Laboratories. For all procedures, mice were anesthetized by intraperitoneal injection of Ketamine/xylazine mixture (100/50 mg/Kg).
as §3
Lung samples were fixed in 10% neutral buffered formalin (Sigma, HT501128-4L), for 24 hours for histological analysis. Fixed lungs were paraffin embedded and sectioned (5 μm-thick) and stained with hematoxylin and eosin (H&E) to examine gross morphology and Masson's trichrome stain to visualize collagen deposition and examined by microscopy. Lung fibrosis was measured using quantitative histology using the Ashcroft method of analysis. All measurements were performed by two independent graders in a blinded fashion. Images were acquired with the Nikon Eclipse E800 microscope with an Olympus DP70 Camera. Adjacent 2× images of the lung were stitched together using Adobe Photoshop CS6.
Bleomycin triggers a strong inflammatory response in the lung at day 7 characterized by infiltration with neutrophils and macrophages, vascular leakage, and up-regulation of cytokines, chemokines and other inflammatory mediators. By day 14, bleomycin treated mice are expected to develop significant lung fibrosis including disruption of the normal lung architecture, thickening of the alveolar septa, and excessive extracellular matrix and collagen deposition around the alveolar structures. We examined the effects of escalating doses of Ro24-7429 (17.5, 35 and 70 mg/kg per day) on bleomycin-induced lung fibrosis by H&E and Masson's trichrome staining in mice at day 14 (FIG. 1A-B, FIG. 5A-B). These doses were estimated to be equivalent to those used in the Ro24-7429 human trial, 75, 150 or 300 mg per day, respectively (28).

[7] = test system: RUNX1 and fibrosis markers in lung tissue; test: Expression of RUNX1 and fibrosis markers in bleomycin-injured lung (Western blot, qRT-PCR, immunostaining); format: in vivo, C57BL/6J mice
Description: as §3
Paraffin embedded sections were processed for immunofluorescence using the following antibodies: anti-RUNX1 (1:100; LS-B13948; Lifespan Biosciences, Seattle, WA), anti-human a-SMA antibody (1:200; NB500-170; Novus Biologicals, Ontario, Canada), anti-Iba1 antibody (1:100; ab5076; Abcam, Cambridge, United Kingdom), anti-Ly6g antibody (1:100; ab25377; Abcam, Cambridge, United Kingdom), and Isolectin GS-IB4 Alexa Fluoro 594 Conjugate (1:250; 121413; Invitrogen, Carlsbad, CA). For heat-induced antigen retrieval the slides were boiled in 10 mM sodium citrate buffer (pH 6.0) and then maintained at a sub-boiling temperature (95-100° C.) for 20 minutes and subsequently cooled on the bench top for 30 minutes. Slides were washed with distilled water and permeabilized with 0.5% Triton X-100 in PBS for 5 minutes and blocked (10% goat serum in PBS) for 1 hour at RT. The primary antibody was prepared in antibody dilution buffer (5% goat serum) and samples were incubated overnight with the antibody solution at 4° C. Sections were washed with PBS and incubated with goat anti-rabbit Alexa Fluor 594 secondary antibody (1:500; A-11012; Invitrogen, Carlsbad, CA) for 2 hours at room temperature. Slides were mounted and visualized using Prolong Gold Antifade Reagent with DAPI (P36935, Invitrogen). Images were obtained using an EVOS FL automated stage live cell imaging system (Life Technologies, Cambridge, MA).
(§4) Protein concentration was determined by Pierce Bicinchonic acid (BCA) protein assay kit (ThermoFisher; 23227) according to the manufacturer's instructions. 20 μg of total cell lysates were prepared in 4 μL 1M 1,4-dithiothreitol (DTT; Sigma Aldrich) and 10 μL Laemmli buffer (Boston Bioproducts) to a final volume of 40 μL and denatured 5 min at 90° C. Samples were separated electrophoretically for 1 h at 70 V using 4-20% pre-cast gradient gels (Mini-PROTEAN TGX, Bio-Rad) and SDS-Tris-Glycine buffer (Bio-rad). Proteins were transferred to 0.45 μm nitrocellulose membranes for 1 h at 70 V in ice cold […] Tris-Glycine buffer (Bio-rad). Membranes were blocked for 1 h with Odyssey Blocking Buffer (LI-COR Biosciences). Then incubated with primary antibodies for 3 hours RT or overnight at 4 degrees Celsius and then washed 3× with TBS-T and incubated with secondary antibodies IRDye 800CW donkey anti-mouse for 1 hour and washed 3× with TBS-T.
Mice were treated as described previously before euthanasia. Lung samples were collected for qRT-PCR analysis and tissues lysed by homogenization. RNA was extracted using RNeasy Mini Kits (QIAGEN), as per the manufacturer's instructions for tissue samples. Transcription into complementary DNA and analysis were performed as stated previously. Primers for selected genes (Table 1) were purchased from Integrated DNA Technologies (Coralville, IA, USA).

[8] = test system: N-Cadherin in A549 cells; test: TGF-β1-induced N-Cadherin upregulation, Western blot, A549; format: cell-based, human; conditions: A549, 150 μM and 200 μM, 24 hours prior to TGF-β1 exposure
Description: as §2, with “atmosphere. Confluent cultures of cells were pretreated with Ro24-7429 for 24 hours followed by stimulation with 5 ng/ml of TGF-β1.” for “atmosphere.”
as §4, with “Then incubated with primary antibodies for 3 hours RT or overnight at 4 degrees Celsius and then washed 3× with TBS-T and incubated with secondary antibodies IRDye 800CW donkey anti-mouse for 1 hour and washed 3× with TBS-T.” left out
(§5) We evaluated the effect of RUNX1 inhibition on the expression of fibrosis markers induced by TGF-β1, a critical mediator of PF (30), in A549 cells at 24, 48 and 72 hours. […]

[9] = test system: N-Cadherin in HPAEpi cells; test: TGF-β1-induced N-Cadherin upregulation, Western blot, HPAEpi; format: cell-based, human; conditions: 150 μM and 200 μM, 24 hours prior to TGF-β1 exposure
Description: (§6) Human Pulmonary Alveolar Epithelial cells (HPAEpiCs) were purchased from ScienCell (Carlsbad, CA, USA) and cultured in alveolar epithelial cell medium (ScienCell) supplemented with 2% fetal bovine serum (FBS), epithelial cell growth supplement, 100 U/mL penicillin G, and 100 µg/mL streptomycin. The cells were cultured and maintained in 6-well plates for experimental purposes.
as §4, with “Then incubated with primary antibodies for 3 hours RT or overnight at 4 degrees Celsius and then washed 3× with TBS-T and incubated with secondary antibodies IRDye 800CW donkey anti-mouse for 1 hour and washed 3× with TBS-T.” left out
as §5

[10] = test system: ACE2 protein in HPAEpi cells; test: TGF-β1 and TNF-α induced ACE2 protein, Western blot, HPAEpi cells; format: cell-based, human; conditions: pretreatment
Description: as §6
as §4, with “Then incubated with primary antibodies for 3 hours RT or overnight at 4 degrees Celsius and then washed 3× with TBS-T and incubated with secondary antibodies IRDye 800CW donkey anti-mouse for 1 hour and washed 3× with TBS-T.” left out
(§7) Additionally, we studied the effect of RUNX1 inhibition on the expression of ACE2 expression in TGF-β1 and TNF-α stimulated HPAEpi cells. […] FURIN protein levels were also observed to go down by 70% in the Ro24-7429 treated mice as evaluated by Western blot (FIGS. 4E-F).

[11] = test system: FURIN mRNA in HMEC-Ls; test: FURIN mRNA, qPCR, TNF-α-stimulated HMEC-Ls; format: cell-based, human; conditions: TNF-α 5 ng/ml
[12] = test system: RUNX1 mRNA in HMEC-Ls; test: TNF-α-induced RUNX1 mRNA, qRT-PCR, HMEC-Ls; format: cell-based, human; conditions: 75 μM, TNF-α 5 ng/ml, 48 hours
[13] = test system: ACE2 and FURIN in lung tissue; test: ACE2 staining and FURIN protein in bleomycin-injured lung; format: in vivo, C57BL/6J mice
Description: as §3, with “groups. […]” for “groups.”
Protein concentration was determined by Pierce Bicinchonic acid (BCA) protein assay kit (ThermoFisher; 23227) according to the manufacturer's instructions. […]
as §7

[14] = test system: human immunodeficiency virus (HIV); conditions: patients infected with HIV; cited from earlier work
[15] = bleomycin mice, lung tissue, day 14

O=C1CN=C(c2ccc[nH]2)c2cc(Cl)ccc2N1 [Ro5-3335, [7-chloro-5-(2-pyrryl)-3H-1,4 benzodiazapin-2-(H)-one]]
cell death by LDH analysis [1]: Very low levels of cell death
cell death by LDH analysis [2]: Very low levels of cell death
percent live cells compared to vehicle treated [3]: significant reduction
anti-proliferative effect ([3]; A549, 48 hours): 32%
anti-proliferative effect ([3]; A549, 72 hours): 50%
reduction in proliferation ([4]; 150 μM): 40%

CNC1=Nc2ccc(Cl)cc2C(c2ccc[nH]2)=NC1 [Ro24-7429, 3H-1,4-Benzodiazepin-2-amine, 7-chloro-N-methyl-5-(1H-pyrrol-2-yl)-]
infiltration of inflammatory cells, neutrophils and macrophages [5]: reduced infiltration
effect on lung phenotype / progression of fibrosis ([6]; 17.5 mg/kg, day 14): slight effect
effect on the progression of fibrosis ([6]; 35 mg/kg, day 14): moderate but variable effect
Ashcroft fibrosis score ([6]; 70 mg/kg, day 14): significant reduction
lung structures after bleomycin instillation ([6]; 70 mg/kg, day 14, H&E and Masson's trichrome): robust preservation of lung structures
cell death by LDH analysis [1]: Very low levels of cell death
α-SMA immunostaining localization ([7]; 70 mg/kg, bleomycin mice): localized only to vessels
expression of E-Cadherin, Western blot [7, 15]: preserved
expression of RUNX1, Western blot [7, 15]: reduced
expression of fibronectin, Western blot [7, 15]: reduced
RUNX1 upregulation, immunofluorescence and qRT-PCR ([7]; bleomycin-injured mice, day 14): significantly attenuated
upregulation of fibrosis markers triggered by bleomycin ([7]; compared to vehicle treated mice, day 14): blunted
TGF-β1-induced N-Cadherin upregulation [8]: effectively prevented
cell death by LDH analysis [2]: Very low levels of cell death
TGF-β1-induced N-Cadherin upregulation [9]: effectively prevented
TGF-β1 and TNFα induced ACE2 protein levels [10]: significantly reduced
reduction of FURIN mRNA expression [11]: 70%
reduction of TNF-α-induced upregulation of RUNX1 mRNA [12]: 50%
percent live cells compared to vehicle treated [3]: significant reduction
reduction in proliferation ([3]; A549, 48 hours, 50 μM): 62%
reduction in proliferation ([3]; A549, 48 hours, 200 μM): 68%
reduction in proliferation ([3]; A549, 72 hours, 200 μM): 82%
decrease of FURIN protein levels ([13]; bleomycin mice lungs, Western blot): 70%
ACE2 staining in the lung ([13]; bleomycin mouse model, 2-week time point, immunofluorescence): markedly reduced
reduction in proliferation ([4]; 50 μM): 30%
reduction in proliferation ([4]; 200 μM): 55%
antiviral activity in clinical trials [14]: no detectable antiviral activity
safety profile in clinical trials [14]: acceptable safety profile

COC(=O)c1ccc2c(c1)NC(=O)/C2=C(\Nc1ccc(N(C)C(=O)CN2CCN(C)CC2)cc1)c1ccccc1 [nintedanib]
percent live cells compared to vehicle treated [3]: significant reduction

Cc1ccc(=O)n(-c2ccccc2)c1 [pirfenidone]
cell death ([2]; A549, 48 hours): 8%
cell death ([2]; A549, 72 hours): 11%
percent live cells compared to vehicle treated [3]: significant reduction
